We go through two compounds from patent publication US20160223527A1, “An Immunological Assay To Detect And Quantify Acetylamantadine” (BIOMARK TECHNOLOGIES INC, priority 2013, published 2016).

In experiment [1] the target is serum of a rabbit immunized repeatedly against acetylamantadine. As to the kind of experiment: Competitive ELISA with serum of a rabbit immunized repeatedly against acetylamantadine. Type of experiment: binding. The note with it: dilution of serum; FIG. 4. As to the method:
A New Zealand white rabbit was immunized intramuscularly with 250 μg of the acetylamantadine-ovalbumin conjugate emulsified in complete Freund's adjuvant. The rabbit was boosted multiple times with acetylamantadine-ovalbumin conjugate, twice with 100 μg of acetylamantadine-conjugate keyhole-limpet hemocyanin and once with 4 pg of avidin coupled with an excess of biotinylated acetylamantadine with alum as an adjuvant. The rabbit was boosted with 100 μg of the acetylamantadine-ovalbumin conjugate 14 days before the rabbit was euthanized and bled out.
The rabbit blood was allowed to clot and the sera were collected. […]
Enzyme-linked immunosorbent assay (ELISA) plates were coated with the biotin-binding protein streptavidin at 2 μg/mL and blocked with skim milk. […] The soluble acetylamantadine or the amatidine was titrated in a separate 96-well plate and incubated for an hour with a small, previously determined concentration of anti-acetylamantadine affinity-purified antibodies absorbed with amantadine that gives a clear signal in the ELISA plates coated with acetylamantadine. […]
The ELISA was incubated for two hours and then the ELISA was developed by adding goat antibodies against rabbit IgG conjugated with alakine phosphatase. The substrate was added and the ELISA developed by standard methods and the optical densities were assayed by an ELISA reader and are shown in FIG. 1. […]

Experiment [2] has as its target affinity-purified antibodies against acetylamantadine. Briefly: Competitive ELISA with affinity-purified antibodies against acetylamantadine, not absorbed with amantadine. Type of experiment: binding, rabbit. The note with it: FIG. 3.
Experiment [3] addresses anti-acetylamantadine affinity-purified antibodies absorbed with amantadine. Briefly: Competitive ELISA with affinity-purified antibodies against acetylamantadine absorbed with amantadine. Type of experiment: binding, rabbit. The note with it: soluble competitor incubated one hour with antibodies; plates coated with streptavidin and biotinylated acetylamantadine 2 ng/mL; FIG. 2. As to the method: The affinity-purified antibodies against acetylamantadine were flowed over a column of cyanogen-bromide coupled agarose beads conjugated with amantadine and the peak of IgG was taken.
Enzyme-linked immunosorbent assay (ELISA) plates were coated with the biotin-binding protein streptavidin at 2 μg/mL and blocked with skim milk. The ELISA plates were then washed with phosphate-buffered saline with an automated washer. Biotinylated acetylamantadine at 2 ng/mL was added to the streptavidin-coated ELISA plates so that acetylamantadine was bound to the streptavidin. The ELISA plates were then washed to remove the free biotinylated acetylamantadine. The soluble acetylamantadine or the amatidine was titrated in a separate 96-well plate and incubated for an hour with a small, previously determined concentration of anti-acetylamantadine affinity-purified antibodies absorbed with amantadine that gives a clear signal in the ELISA plates coated with acetylamantadine. […]
The ELISA was incubated for two hours and then the ELISA was developed by adding goat antibodies against rabbit IgG conjugated with alakine phosphatase. The substrate was added and the ELISA developed by standard methods and the optical densities were assayed by an ELISA reader and are shown in FIG. 1. […] If one makes quadruplicate assays of samples of urine, one can accurately quantify acetylamantadine in the assay. […]
A general note: ELISA stands for enzyme-linked immunosorbent assay.

The next experiment concerns serum at 1:200 dilution. Briefly: Acetylamantadine competitive ELISA using serum at 1:200 dilution (FIG. 5). Type of experiment: binding, rabbit. The note with it: serum 1:200; coating 2 ug/ml streptavidin and 6 ng/ml biotinylated acetylamantadine; tested 0.025 to 250 ng/ml. As to the method:
It will accordingly be understood by a person skilled in the art that the immunological assay disclosed herein may be used to detect or quantify acetylamantadine in a patient who has taken a small dose of amantadine. This is shown in FIG. 5 which illustrates the results of an acetylamandine competitive ELISA with signal reading against acetylamantadine competitive concentration. The ELISA plate coating was 2 ug/ml streptavidin and 6 ng/ml biotinylated acetylamantadine. The competition ELISA using serum at 1:200 dilution against acetylamantadine ranging from 0.025 ng/ml to 250 ng/ml. Complete inhibition inhibition occurs near 100 ng/ml of soluble acetylamantadine. The detection limit (sensitivity) is near 0.5 ng/ml to 1.0 ng/ml The quantification of acetylamantadine can be used to quantify SSAT activity and elevated SSAT activity is an indication of diseases including, but not limited, to inflammations and cancers.

Take `CC(=O)NC12CC3CC(CC(C3)C1)C2` [acetylamantadine]: the results for the “concentration giving significant inhibition (50%) of the binding in the ELISA” value in experiment [1], in experiment [2] and in experiment [3] were ~300 pg/mL, ~1.3 ng/mL and ~400 pg/mL, respectively. The “concentration at which complete inhibition occurs” value in the experiment on serum at 1:200 dilution was ~100 ng/mL.

In the case of `NC12CC3CC(CC(C3)C1)C2` [amantadine], the figures for the “concentration giving significant inhibition (50%) of the binding in the ELISA” value in experiment [1], in experiment [2] and in experiment [3] were 1e+08 pg/mL, 100000 ng/mL and 4e+07 pg/mL, respectively.
